{
  "source": "paper PMC6010127",
  "about": "“Sulfonamide inhibition studies of two β-carbonic anhydrases from the ascomycete fungus Sordaria macrospora, CAS1 and CAS2” (Journal of Enzyme Inhibition and Medicinal Chemistry, 2018)",
  "key": {"CAS1 [1]": {"target": "T1, CAS1 (Sordaria macrospora, UniProt F7VW42)", "T1 construct": "gene SMAC_03420; recombinant, obtained in-house", "T1 sequence (F7VW42 1-234)": "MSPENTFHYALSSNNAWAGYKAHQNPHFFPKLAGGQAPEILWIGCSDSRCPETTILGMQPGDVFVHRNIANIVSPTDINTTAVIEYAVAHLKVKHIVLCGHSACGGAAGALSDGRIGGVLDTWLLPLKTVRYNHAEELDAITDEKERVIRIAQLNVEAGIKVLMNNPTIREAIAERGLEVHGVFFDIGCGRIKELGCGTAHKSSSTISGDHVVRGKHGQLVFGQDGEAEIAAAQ", "test": "stopped-flow CO2 hydration assay", "format": "biochemical"}, "CAS2 [2]": {"target": "T2, CAS2 (Sordaria macrospora, UniProt C1L336)", "T2 construct": "recombinant, obtained in-house", "T2 sequence (C1L336 54-284)": "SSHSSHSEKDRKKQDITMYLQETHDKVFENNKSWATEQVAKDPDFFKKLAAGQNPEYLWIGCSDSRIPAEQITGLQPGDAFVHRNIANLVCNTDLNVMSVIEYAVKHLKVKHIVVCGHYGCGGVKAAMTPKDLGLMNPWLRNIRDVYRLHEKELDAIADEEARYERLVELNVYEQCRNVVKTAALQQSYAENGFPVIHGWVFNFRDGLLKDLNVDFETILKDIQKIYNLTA", "test": "stopped-flow CO2 hydration assay", "format": "biochemical", "settings": "read-out: KI^a (nM) / CAS2^c / β"}, "CAS1 [3]": {"target": "T1, CAS1", "test": "biochemical", "design": "stopped-flow CO2 hydration assay, phenol red 557 nm, pH 8.3, 15 min preincubation; KI by Cheng-Prusoff", "settings": "read-out: KI^a (nM) / CAS1^c / β", "protocol": "(§1) An Applied Photophysics stopped-flow instrument has been used for assaying the CA catalysed CO2 hydration activity. Phenol red (at a concentration of 0.2 mM) has been used as indicator, working at the absorbance maximum of 557 nm, with 20 mM TRIS (pH 8.3) as buffer, and 20 mM Na2SO4 (for maintaining constant the ionic strength), following the initial rates of the CA-catalysed CO2 hydration reaction for a period of 10–100 s. The CO2 concentrations ranged from 1.7 to 17 mM for the determination of the kinetic parameters and inhibition constants. For each inhibitor at least six traces of the initial 5–10% of the reaction have been used for determining the initial velocity. The uncatalysed rates were determined in the same manner and subtracted from the total observed rates. Stock solutions of inhibitor (0.1 mM) were prepared in distilled-deionized water and dilutions up to 0.01 nM were done thereafter with the assay buffer. Inhibitor and enzyme solutions were preincubated together for 15 min at room temperature prior to assay, in order to allow for the formation of the E–I complex. The inhibition constants were obtained by non-linear least-squares methods using PRISM 3 and the Cheng–Prusoff equation, as reported earlier, and represent the mean from at least three different determinations. All CA isofoms were recombinant ones obtained in-house as reported earlier[2]^,[9]."}, "CAS2 [4]": {"target": "T2, CAS2", "test": "biochemical", "design": "stopped-flow CO2 hydration assay, phenol red 557 nm, pH 8.3, 15 min preincubation; KI by Cheng-Prusoff", "protocol": "as §1, with “For each inhibitor at least six traces of the initial 5–10% of the reaction have been used for determining the initial velocity.” left out"}, "[5]": {"settings": "read-out: KI^a (nM) / CAS1^c / β"}, "[6]": {"settings": "read-out: KI^a (nM) / CAS2^c / β, inhibitor"}},
  "data": [
    {"smiles": "CCN[C@H]1CN(CCCOC)S(=O)(=O)c2sc(S(N)(=O)=O)cc21", "note": "[BRZ, brinzolamide]", "values": [
      {"measurement": "Ki", "setting": "CAS1 [1]; [5]", "value": 451, "unit": "nM"},
      {"measurement": "Ki", "setting": "CAS2 [2]", "value": 739, "unit": "nM"}
    ]},
    {"smiles": "NS(=O)(=O)c1nnc(NS(=O)(=O)c2ccccc2)s1", "note": "[BZA, benzolamide]", "values": [
      {"measurement": "Ki", "setting": "CAS2 [2]", "value": 410, "unit": "nM"},
      {"measurement": "Ki", "setting": "CAS1 [3]", "value": 2110, "unit": "nM"}
    ]},
    {"smiles": "Cc1ccc(-c2cc(C(F)(F)F)nn2-c2ccc(S(N)(=O)=O)cc2)cc1", "note": "[CLX, celecoxib]", "values": [
      {"measurement": "Ki", "setting": "CAS2 [2]", "value": 857, "unit": "nM"},
      {"measurement": "Ki", "setting": "CAS1 [3]", "value": 2510, "unit": "nM"}
    ]},
    {"smiles": "NS(=O)(=O)c1cc(Cl)c(Cl)c(S(N)(=O)=O)c1", "note": "[DCP]", "values": [
      {"measurement": "Ki", "setting": "CAS1 [3]", "value": 1220, "unit": "nM"},
      {"measurement": "Ki", "setting": "CAS2 [4]", "value": 5790, "unit": "nM"}
    ]},
    {"smiles": "NS(=O)(=O)c1cc2c(cc1Cl)NCNS2(=O)=O", "note": "[HCT]", "values": [
      {"measurement": "Ki", "setting": "CAS1 [3]", "value": 3350, "unit": "nM"},
      {"measurement": "Ki", "setting": "CAS2 [4]", "value": 6680, "unit": "nM"}
    ]},
    {"smiles": "NS(=O)(=O)c1ccc(S(=O)(=O)Nc2cccc3c(Cl)c[nH]c23)cc1", "note": "[IND, indisulam]", "values": [
      {"measurement": "Ki", "setting": "CAS2 [2]", "value": 216, "unit": "nM"},
      {"measurement": "Ki", "setting": "CAS1 [3]", "value": 4240, "unit": "nM"}
    ]},
    {"smiles": "CC(=O)N=c1sc(S(N)(=O)=O)nn1C", "note": "[MZA, methazolamide]", "values": [
      {"measurement": "Ki", "setting": "CAS1 [1]; [5]", "value": 421, "unit": "nM"}
    ]},
    {"smiles": "O=C1NS(=O)(=O)c2ccccc21", "note": "[SAC]", "values": [
      {"measurement": "Ki", "setting": "CAS1 [3]", "value": 5280, "unit": "nM"},
      {"measurement": "Ki", "setting": "CAS2 [4]", "value": 7070, "unit": "nM"}
    ]},
    {"smiles": "CCN1CCCC1CNC(=O)c1cc(S(N)(=O)=O)ccc1OC", "note": "(stereo not shown) [SLP, sulpiride]", "values": [
      {"measurement": "Ki", "setting": "CAS2 [2]", "value": 670, "unit": "nM"},
      {"measurement": "Ki", "setting": "CAS1 [3]", "value": 1720, "unit": "nM"}
    ]},
    {"smiles": "NS(=O)(=O)c1ccc(N2CCCCS2(=O)=O)cc1", "note": "[SLT, sulthiame]", "values": [
      {"measurement": "Ki", "setting": "CAS2 [2]", "value": 496, "unit": "nM"},
      {"measurement": "Ki", "setting": "CAS1 [3]", "value": 3210, "unit": "nM"}
    ]},
    {"smiles": "CC1(C)O[C@@H]2[C@@H](CO[C@@]3(COS(N)(=O)=O)OC(C)(C)O[C@@H]23)O1", "note": "[TPM, topiramate]", "values": [
      {"measurement": "Ki", "setting": "CAS1 [1]; [5]", "value": 414, "unit": "nM"},
      {"measurement": "Ki", "setting": "CAS2 [2]", "value": 673, "unit": "nM"}
    ]},
    {"smiles": "Cc1onc(-c2ccccc2)c1-c1ccc(S(N)(=O)=O)cc1", "note": "[VLX]", "values": [
      {"measurement": "Ki", "setting": "CAS1 [3]", "value": 4430, "unit": "nM"},
      {"measurement": "Ki", "setting": "CAS2 [4]", "value": 3730, "unit": "nM"}
    ]},
    {"smiles": "NS(=O)(=O)Cc1noc2ccccc12", "note": "[ZNS]", "values": [
      {"measurement": "Ki", "setting": "CAS1 [3]", "value": 1820, "unit": "nM"},
      {"measurement": "Ki", "setting": "CAS2 [4]", "value": 1890, "unit": "nM"}
    ]},
    {"smiles": "Nc1ccc(S(N)(=O)=O)cc1", "note": "[compound 2, sulfanilamide]", "values": [
      {"measurement": "Ki", "setting": "CAS1 [1]", "value": 144, "unit": "nM"}
    ]},
    {"smiles": "Cc1ccc(S(N)(=O)=O)cc1", "note": "[compound 4, tosylamide]", "values": [
      {"measurement": "Ki", "setting": "CAS1 [1]; [5]", "value": 47.1, "unit": "nM"}
    ]},
    {"smiles": "Cc1ccc(S(N)(=O)=O)cc1", "note": "[compound 4]", "values": [
      {"measurement": "Ki", "setting": "CAS2 [4]", "value": 6900, "unit": "nM"}
    ]},
    {"smiles": "Nc1ccc(S(N)(=O)=O)cc1F", "note": "[compound 7, 3-fluorosulfanilamide]", "values": [
      {"measurement": "Ki", "setting": "CAS1 [1]; [5]", "value": 43.2, "unit": "nM"}
    ]},
    {"smiles": "Nc1ccc(S(N)(=O)=O)cc1F", "note": "[compound 7]", "values": [
      {"measurement": "Ki", "setting": "CAS2 [4]", "value": 7360, "unit": "nM"}
    ]},
    {"smiles": "Nc1ccc(S(N)(=O)=O)cc1Cl", "note": "[compound 8, 3-chlorosulfanilamide]", "values": [
      {"measurement": "Ki", "setting": "CAS1 [1]; [5]", "value": 79.6, "unit": "nM"}
    ]},
    {"smiles": "Nc1ccc(S(N)(=O)=O)cc1Cl", "note": "[compound 8]", "values": [
      {"measurement": "Ki", "setting": "CAS2 [4]", "value": 9120, "unit": "nM"}
    ]},
    {"smiles": "Nc1ccc(S(N)(=O)=O)cc1Br", "note": "[compound 9, bromosubstituted derivative 9]", "values": [
      {"measurement": "Ki", "setting": "CAS1 [1]; pH 8.3, 20 mM TRIS, 20 mM Na2SO4, CO2 1.7-17 mM, 15 min preincubation at room temperature, read-out: KI^a (nM) / CAS1^c / β", "value": 580, "unit": "nM"}
    ]},
    {"smiles": "Nc1ccc(S(N)(=O)=O)cc1Br", "note": "[compound 9]", "values": [
      {"measurement": "Ki", "setting": "CAS2 [4]; [6]", "value": 12000, "unit": "nM"}
    ]},
    {"smiles": "Nc1nnc(S(N)(=O)=O)s1", "note": "[compound 13, 5-amino-1,3,4-thiadiazole-2-sulfonamide]", "values": [
      {"measurement": "Ki", "setting": "CAS2 [2]", "value": 48.1, "unit": "nM"},
      {"measurement": "Ki", "setting": "CAS1 [3]", "value": 8650, "unit": "nM"}
    ]},
    {"smiles": "Cn1nc(S(N)(=O)=O)sc1=N", "note": "[compound 14]", "values": [
      {"measurement": "Ki", "setting": "CAS1 [3]; inhibitor", "value": 7210, "unit": "nM"},
      {"measurement": "Ki", "setting": "CAS2 [4]; [6]", "value": 280, "unit": "nM"}
    ]},
    {"smiles": "NS(=O)(=O)c1ccc(CO)cc1", "note": "[compound 16, 4-hydroxymethyl-benzenesulfonamide]", "values": [
      {"measurement": "Ki", "setting": "CAS2 [2]", "value": 92.5, "unit": "nM"},
      {"measurement": "Ki", "setting": "CAS1 [3]", "value": 4520, "unit": "nM"}
    ]}
  ]
}
